The text below walks through data of US4020164A, “Benzomorphan derivatives” (priority 1972, dated 1977).

In one assay the test system is electroshock. The experiment in a line: Maximal electroshock test. To be noted: mice; for ED50, Maximal Electroshock Test: s.c. It counts as in vivo. As for the experimental part:
10-40 controls animals were used in each experiment. […] ED50 figures were rounded.
In the maximum electroshock test, the test substances were administered to dose groups of 6 mice. Sinusoidal pulses of 16 milliamperes/50 c.p.s. [Hertz] and 0.2 second duration were delivered transcorneally via silver electrodes. The shock intensity used elicits nonlethal tonic-clonic convulsions in control animals (p <0.01, N = 192). The criterion for protective effect was the absence of the tonic extensor cramp of the hind limbs after shock application (modified test according to Swinyard et al., J. Pharmacol. Exp. Ther. 106, 319, 1952).

The subject of assay [1] is phenylquinone. The assay is described as follows: Writhing test, acute (phenylquinone writhing, analgesic activity). It counts as in vivo. As to conditions: mice; for ED50, writhing test, acute p.o., 10 min. p.i. / ED50, writhing test, acute p.o., 30 min. p.i. / ED50, writhing test, acute s.c., 30 min. p.i. / ED50, writhing test, acute s.c., 10 min. p.i.: phenylquinone 2 mg/kg i.p., hydrochloride; for ED50, writhing test, acute p.o., 10 min. p.i. / ED50, writhing test, acute p.o., 30 min. p.i. / ED50, writhing test, acute s.c., 10 min. p.i.: ED50 rounded; for ED50, writhing test, acute s.c., 30 min. p.i.: * = significant difference between acute and subchronic ED50 (p < 0.001); for potency in writhing test compared with cyclazocine: vs. cyclazocine; for potency in writhing test compared with morphine: vs. morphine; for potency in writhing test compared with pentazocine: vs. pentazocine. On the procedure:
(§1) The pharmacological investigations were conducted on mice weighing 20-22 g. or on rats weighing 80-110 g. Unless indicated otherwise, the test substances were administered in the form of the hydrochloride acid addition salt thereof in an isotonic NaCl solution, and the animals were examined 30 minutes after subcutaneous (sc) application. The injection volume was respectively 5 ml./kg. of body weight. 10-40 controls animals were used in each experiment. The test and control solutions were administered in accordance with a randomized injection schedule. Seven logarithmically spaced dosages were employed of each test substance. The effective dose (ED) was calculated by probit analysis (Finney, D. J., "Probit Analysis," Cambridge University Press, 2nd Edition, Cambridge 1957). ED50 figures were rounded.
(§2) In the acute test, the test compounds were administered perorally (p.o.) or subcutaneously (s.c.) to mice. Eight mice were used per dose. Seven minutes prior to the testing, the animals received 2 mg./kg. of phenylquinone intraperitoneally. […] The criterion for protective effect was absence of writhes during the eighth minute after phenylquinone administration.
For orientation: In writhing tests, fewer writhes than in controls are read as antinociception.

The test system of the next assay is apomorphine. The assay is described as follows: Apomorphine antagonism test. The class given is in vivo, mice. As to conditions: for apomorphine-antagonistic activity compared with cyclazocine and pentazocine: vs. cyclazocine and pentazocine; for apomorphine-antagonistic activity compared with haloperidol: vs. haloperidol; for ED50, Apomorphine Antagonism: mouse, in vivo, 1.56 mg/kg. As for the experimental part: as §1
The criterion for antagonistic effect was the absence of stereotyped movements within an observation period of one minute.

Assay [2] concerns morphine. The assay is described as follows: animal or person. The class given is in vivo, rats. To be noted: rat, in vivo; for ED50, Morphine Antagonism-Tail-Flick Test, Rats: sc, 6.25 mg/kg. For orientation: Hot-plate and tail-flick tests time the reaction to a heat stimulus.
Assay [3] concerns phenylquinone. To be noted: mice; s.c.; 30 min p.i.; 25 hours after last injection of 64-hour pretreatment, total 550 mg/kg. As for the experimental part:
as §1, §2
In the subchronic test, the same test was performed 25 hours after the last injection of a 64-hour pretreatment period, with the test compound being administered subcutaneously. During the pretreatment period, the subjects received a total of 550 mg/kg. of the test compound, with the test compound being injected over a period of 22 hours in 4 increasing dosages in salt form, and over an additional 42 hours in 2 identical dosages in free base form in sesame oil.

Assay [4] has as its system morphine. Further details: species or system mice. As to conditions: mouse, in vivo; for ED50, Morphine Antagonism-Tail-Flick Test, Mice: 12.5 mg/kg.
Assay [5] concerns morphine. The experiment in a line: Precipitated Withdrawal Jumping Test (morphine antagonism in morphine-dependent mice). It counts as in vivo. On the procedure:
as §1
The test compound was given to dose groups of 8 animals. The antagonist-precipitated withdrawal jumping frequencies were recorded during three 5-minute observation intervals uniformly distributed over 30 minutes after administration of the test compound. […] The criterion for a precipitating effect is a mean jumping frequency of >1/minute.

Where [6] appears, read: 16 mA/50 c.p.s., 0.2 second, transcorneal, absence of tonic extensor cramp of hind limbs, 30 min.
The mark [7] stands for this setting: morphine-dependent mice, criterion mean jumping frequency >1/minute.

Where a name gives a salt, the structure may show the parent alone.

Regarding `CCC12CCN(CC(C)(C)O)C(Cc3ccc(O)cc31)C2C` (single isomer, unassigned; (-)) [Compound A, (-)-5-ethyl-2'-hydroxy-2-(2-hydroxy-2-methylpropyl)-9-methyl-6,7-benzomorphan], the “muscle-relaxant and anti-convulsant effect in maximum electroshock test (in words)” value in the assay with electroshock is “strong muscle-relaxant and anti-convulsant effect”. Moreover, the “ED50, Maximal Electroshock Test” value in the assay with electroshock (setting [6]) is 8 mg/kg. In addition, in the assay on phenylquinone [1], the “ED50, writhing test, acute p.o., 10 min. p.i.” value (“ED50 … acute p.o., 10 min. p.i.” for short) is reported as 3 mg/kg; the “ED50, writhing test, acute p.o., 30 min. p.i.” value (“ED50 … acute p.o., 30 min. p.i.” below) worked out at 7 mg/kg; the “ED50, writhing test, acute s.c., 30 min. p.i.” value (shortened to “ED50 … acute s.c., 30 min. p.i.”) stood at 0.2 mg/kg; the “potency in writhing test compared with cyclazocine” value is on record as “at least equipotent with cyclazocine”. In the assay on phenylquinone [1], the “potency in writhing test compared with morphine” value was “more potent than morphine” and the “potency in writhing test compared with pentazocine” value was “appreciably more potent than pentazocine”. Besides, in the assay on apomorphine (mice), the “apomorphine-antagonistic activity compared with cyclazocine and pentazocine” value was “markedly stronger activity than cyclazocine and pentazocine”; the “apomorphine-antagonistic activity compared with haloperidol” value is recorded as “only slightly weaker effectiveness than haloperidol”. Also, the “ED50, Apomorphine Antagonism” value in the assay with apomorphine (sc) came to 0.3 mg/kg.

Take `CC1C2Cc3ccc(O)cc3C1(C)CCN2CC(C)(C)O` (single isomer, unassigned; (-)) [Compound B, (-)-2'-hydroxy-2-(2-hydroxy-2-methylpropyl)-5,9-dimethyl-6,7-benzomorphan]: in the assay on morphine [2], the “morphine-antagonistic activity, tail-flick test (in words), rats” value (“morphine-antagonistic activity … rats” for short) was “marked activity” and the “ED50, Morphine Antagonism-Tail-Flick Test, Rats” value (“ED50 … Rats” below) worked out at 3 mg/kg. Further, in the assay with electroshock, the “muscle-relaxant and anti-convulsant effect in maximum electroshock test (in words)” value is “strong muscle-relaxant and anti-convulsant effect”. The “ED50, Maximal Electroshock Test” value in the assay on electroshock (setting [6]) was 4 mg/kg. Further, the “ED50, writhing test, subchronic s.c., 30 min. p.i.” value with phenylquinone [3] is 0.4 mg/kg. In addition, in the assay on phenylquinone [1], the “ED50 … acute p.o., 10 min. p.i.” value worked out at 5 mg/kg; the “ED50 … acute p.o., 30 min. p.i.” value is 10 mg/kg; the “ED50, writhing test, acute s.c., 10 min. p.i.” value amounted to 0.05 mg/kg; the “ED50 … acute s.c., 30 min. p.i.” value was 0.4 mg/kg. In the assay with phenylquinone [1], the “potency in writhing test compared with cyclazocine” value is recorded as “at least equipotent with cyclazocine”, the “potency in writhing test compared with morphine” value is “more potent than morphine” and the “potency in writhing test compared with pentazocine” value was “appreciably more potent than pentazocine”. Also, in the assay on morphine [4], the “morphine-antagonistic activity, tail-flick test (in words), mice” value (shortened to “morphine-antagonistic activity … mice”) is “marked activity”. In addition, the “ED50, Morphine Antagonism-Tail-Flick Test, Mice” value (“ED50 … Mice” for short) in the assay with morphine [4] (sc) came out at 5 mg/kg. In the assay with morphine [5] (morphine-dependent mice), the “precipitated withdrawal effect (in words)” value is given as “inactivity”; the “sedative and muscle-relaxant effect (explaining inactivity in jumping test)” value was “simultaneous sedative and muscle-relaxant effect”. For the same molecule, the “ED50, Precipitated Withdrawal Jumping Test (inactive, footnote 1)” value with morphine [5] (morphine-dependent mice, tested at 0.1 - 3.13 mg/kg) is on record as “Inactive”. In addition, in the assay with apomorphine (mice), the “apomorphine-antagonistic activity compared with cyclazocine and pentazocine” value is “markedly stronger activity than cyclazocine and pentazocine”; the “apomorphine-antagonistic activity compared with haloperidol” value was “only slightly weaker effectiveness than haloperidol”. Also, the “ED50, Apomorphine Antagonism” value with apomorphine (sc) came to 0.3 mg/kg.

Take `CCC12CCN(CC(C)O)C(Cc3ccc(O)cc31)C2C` (single isomer, unassigned; (-)) [Compound C, (-)-5-ethyl-2'-hydroxy-2-(2-hydroxypropyl)-9-methyl-6,7-benzomorphan]: in the assay with morphine [2], the “morphine-antagonistic activity … rats” value was “marked activity” and the “ED50 … Rats” value was 2 mg/kg. The “morphine-antagonistic activity … mice” value with morphine [4] was “marked activity”. Besides, the “ED50 … Mice” value in the assay with morphine [4] (sc) is 1 mg/kg. Moreover, the “precipitated withdrawal effect (in words)” value with morphine [5] (morphine-dependent mice) is reported as “considerable activity”. Also, the “ED50, Precipitated Withdrawal Jumping Test” value with morphine [5] (setting [7]) is 7 mg/kg.

Turning to `CC(O)CN1CCC2(C)c3cc(O)ccc3CC1C2C` (single isomer, unassigned; (-)) [Compound D, (-)-2'-hydroxy-2-(2-hydroxypropyl)-5,9-dimethyl-6,7-benzomorphan], in the assay on morphine [2], the “morphine-antagonistic activity … rats” value is on record as “marked activity” and the “ED50 … Rats” value is 2 mg/kg. In the assay with morphine [4], the “morphine-antagonistic activity … mice” value was “marked activity”. The “ED50 … Mice” value in the assay on morphine [4] (sc) is on record as 1 mg/kg. Further, the “precipitated withdrawal effect (in words)” value in the assay on morphine [5] (morphine-dependent mice) is reported as “considerable activity”. In addition, in the assay with morphine [5] (setting [7]), the “ED50, Precipitated Withdrawal Jumping Test” value came to 9 mg/kg.

Usually ED50 stands for the dose that gives a 50% effect, or the effect in half of the subjects. As to `CNC1=Nc2ccc(Cl)cc2C(c2ccccc2)=[N+]([O-])C1` [Chlordiazepoxide, reference compound], in the assay on electroshock (Mus musculus, sc, 0.5 h, 16 mA/50 c.p.s., 0.2 second, transcorneal, absence of tonic extensor cramp of hind limbs, 30 min), it took a dose of 12 mg/kg to reach the 50% effect level (ED50).

Turning to `O=C(CCCN1CCC(O)(c2ccc(Cl)cc2)CC1)c1ccc(F)cc1` [Haloperidol, reference compound], the ED50 with apomorphine (Mus musculus, sc, read-out: ED50, Apomorphine Antagonism) turned out to be 0.1 mg/kg.

As to `CN1CC[C@]23c4c5ccc(O)c4O[C@H]2[C@@H](O)C=C[C@H]3[C@H]1C5` [Morphine, reference compound], in the assay with phenylquinone [3], the “ED50, writhing test, subchronic s.c., 30 min. p.i.” value was determined as 3 mg/kg. Also, in the assay on phenylquinone [1], the “ED50 … acute p.o., 10 min. p.i.” value turned out to be 7 mg/kg; the “ED50 … acute p.o., 30 min. p.i.” value worked out at 3 mg/kg; the “ED50, writhing test, acute s.c., 10 min. p.i.” value was determined as 0.3 mg/kg; the “ED50 … acute s.c., 30 min. p.i.” value amounted to 0.5 mg/kg.

Take `C=CCN1CC[C@]23c4c5ccc(O)c4O[C@H]2C(=O)CC[C@@]3(O)[C@H]1C5` [Naloxone, reference compound]: it took a dose of 0.2 mg/kg to reach the 50% effect level in the assay with morphine [5] (Mus musculus, sc, morphine-dependent mice, criterion mean jumping frequency >1/minute) (ED50). In the assay on morphine [5] (mice, solvent controls, naloxone 0.39 mg/kg, N = 80), the “jumping frequency, solvent controls challenged with naloxone” value is 0.13 ± 0.06 min⁻¹.

For the molecule `CN1CCc2cccc3c2[C@H]1Cc1ccc(O)c(O)c1-3` [apomorphine hydrochloride, reference compound], the ED95 in the assay with apomorphine (Mus musculus, sc, mice, ED95, s.c., read-out: apomorphine dose corresponding to an ED95 for the production of stereotyped behavior in the head region) was found to be 1.56 mg/kg.

Regarding `CN1CC[C@]23c4c5ccc(O)c4O[C@H]2[C@@H](O)C=C[C@H]3[C@H]1C5.O=S(=O)(O)O` [morphine sulfate, reference compound], the “morphine dose corresponding to the ED99, reaction times exceeding 95% value of controls” value in the assay with morphine [2] stood at 6.25 mg/kg. The “morphine dose corresponding to the ED80, reaction times exceeding 95% value of controls” value in the assay on morphine [4] (sc) came out at 12.5 mg/kg.

As for `O=C1C=CC(=O)C(c2ccccc2)=C1` [phenylquinone, reference compound], the ED95 in the assay on phenylquinone [1] (Mus musculus, ip, 10 min, ED95, intraperitoneal, maximum action within 10 minutes p.i., read-out: phenylquinone dosage corresponding to the ED95 for the evocation of writhing) came to 2 mg/kg.
